Data on 31 compounds can be found in patent US20090069320A1, “Substituted 4-Amino-Quinazoline Compounds with Metabotropic Glutamate Receptor Regulating Activity and Uses Thereof” (Gruenenthal GmbH, priority 2006, published 2009).

One experiment deals with T1, mGluR5 receptor (Sus scrofa, UniProt I3LUI7).
T1 construct: 450 μg of protein from brain homogenate with 5 nM ^3[H]-MPEP; from tissue; host or cells: pig brain halves without medulla, cerebellum and pons
T1 sequence (I3LUI7 19-1212): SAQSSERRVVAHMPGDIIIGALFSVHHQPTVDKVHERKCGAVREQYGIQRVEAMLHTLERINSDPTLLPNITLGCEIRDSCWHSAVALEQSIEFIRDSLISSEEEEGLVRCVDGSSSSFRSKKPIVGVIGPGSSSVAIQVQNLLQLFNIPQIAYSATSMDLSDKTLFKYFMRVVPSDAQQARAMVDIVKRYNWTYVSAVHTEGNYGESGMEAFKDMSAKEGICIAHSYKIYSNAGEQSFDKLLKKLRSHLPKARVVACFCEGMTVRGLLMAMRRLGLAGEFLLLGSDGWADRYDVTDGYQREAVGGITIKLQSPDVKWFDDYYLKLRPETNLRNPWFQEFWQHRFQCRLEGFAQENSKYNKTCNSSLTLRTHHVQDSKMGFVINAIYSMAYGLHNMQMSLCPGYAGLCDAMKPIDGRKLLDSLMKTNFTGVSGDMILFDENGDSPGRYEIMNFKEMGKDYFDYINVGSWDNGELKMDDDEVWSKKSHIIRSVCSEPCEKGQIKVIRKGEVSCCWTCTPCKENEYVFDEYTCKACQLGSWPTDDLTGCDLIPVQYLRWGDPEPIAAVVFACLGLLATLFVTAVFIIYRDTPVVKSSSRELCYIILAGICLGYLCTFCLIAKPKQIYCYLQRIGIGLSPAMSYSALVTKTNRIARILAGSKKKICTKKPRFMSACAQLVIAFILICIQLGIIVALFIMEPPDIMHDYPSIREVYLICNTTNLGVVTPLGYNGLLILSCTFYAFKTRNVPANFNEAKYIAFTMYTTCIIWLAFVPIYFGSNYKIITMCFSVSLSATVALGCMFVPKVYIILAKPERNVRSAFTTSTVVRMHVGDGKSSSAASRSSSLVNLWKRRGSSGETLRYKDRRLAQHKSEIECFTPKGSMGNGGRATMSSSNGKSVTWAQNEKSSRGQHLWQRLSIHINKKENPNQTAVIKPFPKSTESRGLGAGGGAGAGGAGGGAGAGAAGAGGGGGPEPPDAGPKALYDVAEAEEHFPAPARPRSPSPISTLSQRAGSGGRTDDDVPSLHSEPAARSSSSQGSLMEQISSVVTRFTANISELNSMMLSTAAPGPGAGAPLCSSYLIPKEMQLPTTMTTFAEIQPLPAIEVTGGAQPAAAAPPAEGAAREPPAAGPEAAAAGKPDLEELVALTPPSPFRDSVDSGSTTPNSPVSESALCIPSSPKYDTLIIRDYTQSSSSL
Briefly: [3H]-MPEP mGluR5 receptor binding assay (pig brain homogenate). Particulars: 5 nM [3H]-MPEP, read-out: IC50 mGluR5 Receptor (pig) [^3H]-MPEP Bond. Summed up:
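Compounds at 10 μM competed with 5 nM [3H]-MPEP for binding to pig brain membranes (450 μg protein) for 60 min at room temperature in pH 8.0 Hepes buffer. Bound radioactivity was collected on glass-fibre filters and read by β-counting, with 10 μM unlabelled MPEP giving non-specific binding.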
Regarding `CC(=O)N(Cc1cc(-c2ccc3ncnc(NC4CC4)c3c2)ccc1Cl)C1CC1` [Example 777, N-(2-chloro-5-(4-(cyclopropylamino)quinazolin-6-yl)benzyl)-N-cyclopropyl acetamide], the IC50 (in general, the concentration needed to halve the response being measured) was 50 nM.

The experiment is the same for the next values; noted with them: 10 μM compound, 5 nM [3H]-MPEP.
With `O=S(=O)(c1cccc(C(F)(F)F)c1)N(Cc1cc(-c2ccc3ncnc(NC4CC4)c3c2)ccc1Cl)C1CC1` [Example 778, N-(2-chloro-5-(4-(cyclopropylamino)quinazolin-6-yl)benzyl)-N-cyclopropyl-3-(trifluoromethyl)benzole sulfonamide], the “% Inhibition of mGluR5 Receptor (pig) [^3H]-MPEP Bond at 10 μM” value (shortened to “% Inhibition of mGluR5 Receptor (pig)”) is reported as 84%. Same read-out and setting: the value for `O=S(=O)(c1ccc(Cl)cc1Cl)N(Cc1cccc(-c2cc(F)c3ncnc(NC4CC4)c3c2)c1)C1CC1` [Example 782, 2,4-dichloro-N-cyclopropyl-N-(3-(4-(cyclopropylamino)-8-fluoroquinazolin-6-yl)benzyl)benzole sulfonamide] was 50%. Still for that read-out and setting: to `O=C(c1ccccc1)N(Cc1cc(-c2ccc3ncnc(NC4CC4)c3c2)ccc1Cl)C1CC1` [Example 783, N-(2-chloro-5-(4-(cyclopropylamino)quinazolin-6-yl)benzyl)-N-cyclopropyl benzamide] belongs 93%; to `CC(C)(C)C(=O)N(Cc1cc(-c2ccc3ncnc(NC4CC4)c3c2)ccc1Cl)C1CC1` [Example 785, N-(2-chloro-5-(4-(cyclopropylamino)quinazolin-6-yl)benzyl)-N-cyclopropyl pivalamide], 100%; to `COc1ccc(S(=O)(=O)N(Cc2cc(-c3ccc4ncnc(NC5CC5)c4c3)ccc2Cl)C2CC2)cc1` [Example 786, N-(2-chloro-5-(4-(cyclopropylamino)quinazolin-6-yl)benzyl)-N-cyclopropyl-4-methoxybenzole sulfonamide], 95%.

Take `CCCCC(=O)N(Cc1cc(-c2ccc3ncnc(NC4CC4)c3c2)ccc1Cl)C1CC1` [Example 793, N-(2-chloro-5-(4-(cyclopropylamino)quinazolin-6-yl)benzyl)-N-cyclopropyl pentanamide]: the “% Inhibition of mGluR5 Receptor (pig)” value is reported as 94%.

As for `O=S(=O)(c1ccc(Cl)cc1Cl)N(Cc1cc(-c2ccc3ncnc(NC4CC4)c3c2)ccc1Cl)C1CC1` [Example 794, 2,4-dichloro-N-(2-chloro-5-(4-(cyclopropylamino)quinazolin-6-yl)benzyl)-N-cyclopropyl benzole sulfonamide], the “% Inhibition of mGluR5 Receptor (pig)” value is given as 93%. The same measure, in the same setting: the value for `O=S(=O)(c1ccc(Cl)cc1Cl)N(Cc1cc(-c2ccc3ncnc(NC4CC4)c3c2)ccn1)C1CC1` [Example 796, 2,4-dichloro-N-cyclopropyl-N-((4-(4-(cyclopropylamino)quinazolin-6-yl)pyridin-2-yl)methyl)benzole sulfonamide] was 78%; that for `O=S(=O)(c1ccccc1)N(Cc1cc(-c2ccc3ncnc(NC4CC4)c3c2)ccc1Cl)C1CC1` [Example 799, N-(2-chloro-5-(4-(cyclopropylamino)quinazolin-6-yl)benzyl)-N-cyclopropyl benzole sulfonamide] was 92%; that for `O=S(=O)(c1c(F)c(F)c(F)c(F)c1F)N(Cc1cc(-c2ccc3ncnc(NC4CC4)c3c2)ccc1Cl)C1CC1` [Example 802, N-(2-chloro-5-(4-(cyclopropylamino)quinazolin-6-yl)benzyl)-N-cyclopropyl-2,3,4,5,6-pentafluorobenzole sulfonamide] was 97%. On the same count and under the same terms, the value for `COc1ccc(S(=O)(=O)N(Cc2cc(-c3ccc4ncnc(NC5CC5)c4c3)ccn2)C2CC2)cc1` [Example 806, N-cyclopropyl-N-((4-(4-(cyclopropylamino)quinazolin-6-yl)pyridin-2-yl)methyl)-4-methoxybenzole sulfonamide] was 89%. The same measure, in the same setting: to `CC(C)(C)Nc1ncnc2ccc(-c3ccc(F)c(CN(C(=O)c4ccco4)C4CC4)c3)cc12` [Example 807, N-(5-(4-(tert-butylamino)quinazolin-6-yl)-2-fluorobenzyl)-N-cyclopropyl furan-2-carboxamide] belongs 90%.

Still in this experiment, the particulars now being: 10 μM compound, 5 nM [3H]-MPEP, read-out: % Inhibition of mGluR5 Receptor (pig) [^3H]-MPEP Bond at 10 μM.
Regarding `O=S(=O)(Cc1ccccc1)N(Cc1cc(-c2ccc3ncnc(NC4CC4)c3c2)ccc1Cl)C1CC1` [Example 771, N-(2-chloro-5-(4-(cyclopropylamino)quinazolin-6-yl)benzyl)-N-cyclopropyl-1-phenylmethane sulfonamide], the inhibition (usually how much of the control response was suppressed) at 10 µM was 80%.

As to `CC(=O)N(Cc1cc(-c2ccc3ncnc(NC4CC4)c3c2)ccn1)C1CC1` [Example 773, N-cyclopropyl-N-((4-(4-(cyclopropylamino)quinazolin-6-yl)pyridin-2-yl)methyl)acetamide], the inhibition at 10 µM turned out to be 74%. As to `O=C(c1ccno1)N(Cc1cccc(-c2cc(F)c3ncnc(NC4CC4)c3c2)c1)C1CC1` [Example 775, N-cyclopropyl-N-(3-(4-(cyclopropylamino)-8-fluoroquinazolin-6-yl)benzyl)isoxazole-5-carboxamide], the inhibition at 10 µM was 76%. Turning to `Cc1cc(C(=O)N(Cc2cc(-c3ccc4ncnc(NC5CC5)c4c3)ccc2Cl)C2CC2)n(C)n1` [Example 776, N-(2-chloro-5-(4-(cyclopropylamino)quinazolin-6-yl)benzyl)-N-cyclopropyl-1,3-dimethyl-1H-pyrazole-5-carboxamide], the inhibition at 10 µM is 55%.

Regarding `O=C(c1cccnc1)N(Cc1cccc(-c2cc(F)c3ncnc(NC4CC4)c3c2)c1)C1CC1` [Example 781, N-cyclopropyl-N-(3-(4-(cyclopropylamino)-8-fluoroquinazolin-6-yl)benzyl)nicotinamide], the inhibition at 10 µM was determined as 67%. The same measure, in the same setting: to `COc1ccc(C(=O)N(Cc2cc(-c3ccc4ncnc(NC5CC5)c4c3)ccc2Cl)C2CC2)cc1OC` [Example 784, N-(2-chloro-5-(4-(cyclopropylamino)quinazolin-6-yl)benzyl)-N-cyclopropyl-3,4-dimethoxybenzamide] belongs 56%; to `O=S(=O)(c1cccs1)N(Cc1cc(-c2ccc3ncnc(NC4CC4)c3c2)ccn1)C1CC1` [Example 788, N-cyclopropyl-N-((4-(4-(cyclopropylamino)quinazolin-6-yl)pyridin-2-yl)methyl)thiophene-2-sulfonamide], 77%. The same measure, in the same setting: the value for `O=C(c1ccccc1C(F)(F)F)N(Cc1cccc(-c2cc(F)c3ncnc(NC4CC4)c3c2)c1)C1CC1` [Example 789, N-cyclopropyl-N-(3-(4-(cyclopropylamino)-8-fluoroquinazolin-6-yl)benzyl)-2-(trifluoromethyl)benzamide] was 84%. Still for that read-out and setting: the value for `O=C(c1cccc(F)c1)N(Cc1cc(-c2ccc3ncnc(NC4CC4)c3c2)ccc1Cl)C1CC1` [Example 791, N-(2-chloro-5-(4-(cyclopropylamino)quinazolin-6-yl)benzyl)-N-cyclopropyl-3-fluorobenzamide] was 89%; that for `O=C(c1ccc(F)cc1F)N(Cc1cc(-c2ccc3ncnc(NC4CC4)c3c2)ccc1Cl)C1CC1` [Example 792, N-(2-chloro-5-(4-(cyclopropylamino)quinazolin-6-yl)benzyl)-N-cyclopropyl-2,4-difluorobenzamide] was 88%. On to `O=C(c1cccc(F)c1)N(Cc1cc(-c2ccc3ncnc(NC4CC4)c3c2)ccn1)C1CC1` [Example 795, N-cyclopropyl-N-((4-(4-(cyclopropylamino)quinazolin-6-yl)pyridin-2-yl)methyl)-3-fluorobenzamide], for which the inhibition at 10 µM came to 73%. Take `COCC(=O)N(Cc1cccc(-c2cc3c(NC4CC4)ncnc3cc2C)c1)C1CC1` [Example 797, N-cyclopropyl-N-(3-(4-(cyclopropylamino)-7-methylquinazolin-6-yl)benzyl)-2-methoxyacetamide]: the inhibition at 10 µM was 85%.

As for `O=C(c1ccc(C(F)(F)F)cc1F)N(Cc1cc(-c2ccc3ncnc(NC4CC4)c3c2)ccc1Cl)C1CC1` [Example 800, N-(2-chloro-5-(4-(cyclopropylamino)quinazolin-6-yl)benzyl)-N-cyclopropyl-2-fluoro-4-(trifluoromethyl)benzamide], the inhibition at 10 µM was 91%. On the same count and under the same terms, to `COCC(=O)N(Cc1cc(-c2ccc3ncnc(NC4CC4)c3c2)ccc1Cl)C1CC1` [Example 801, N-(2-chloro-5-(4-(cyclopropylamino)quinazolin-6-yl)benzyl)-N-cyclopropyl-2-methoxyacetamide] belongs 88%; to `O=C(c1c(F)c(F)c(F)c(F)c1F)N(Cc1cc(-c2ccc3ncnc(NC4CC4)c3c2)ccn1)C1CC1` [Example 803, N-cyclopropyl-N-((4-(4-(cyclopropylamino)quinazolin-6-yl)pyridin-2-yl)methyl)-2,3,4,5,6-pentafluorobenzamide], 93%; to `CC(C)S(=O)(=O)N(Cc1cc(-c2ccc3ncnc(NC4CC4)c3c2)ccn1)C1CC1` [Example 804, N-cyclopropyl-N-((4-(4-(cyclopropylamino)quinazolin-6-yl)pyridin-2-yl)methyl)propane-2-sulfonamide], 83%. Same read-out and setting: the value for `O=S(=O)(Cc1ccccc1)N(Cc1cc(-c2ccc3ncnc(NC4CC4)c3c2)ccn1)C1CC1` [Example 805, N-cyclopropyl-N-((4-(4-(cyclopropylamino)quinazolin-6-yl)pyridin-2-yl)methyl)-1-phenylmethane sulfonamide] was 92%; that for `CC(C)(C)Nc1ncnc2ccc(-c3ccc(F)c(CN(C(=O)c4cccc(C(F)(F)F)c4)C4CC4)c3)cc12` [Example 808, N-(5-(4-(tert-butylamino)quinazolin-6-yl)-2-fluorobenzyl)-N-cyclopropyl-3-(trifluoromethyl)benzamide] was 81%.
